Consider one compound from USRE34630E, “Substituted isoquinolines and methods of using same” (Euroceltique, S.A., priority 1992, dated 1994).

For data set [1], the system named is human neutrophils (PAF-induced degranulation). Nature of the data set: PAF-induced degranulation (myeloperoxidase release) of human neutrophils. In kind it is cell-based. The note with it: Neutrophil, 30 uM. How it is done:
(§1) The cellular responses studied include (1) PAF-induced release of preloaded, radiolabeled serotonin from rabbit platelets, (2) PAF-induced degranulation (release of myeloperoxidase) from purified human nuetrophils and (3) PAF-induced adhesion of human neutrophils to latex beads. Each putative antagonist was tested at 30 μM for its effect on each response. Selected compounds were tested in a concentration-response fashion.
Neutrophils are isolated from human venous blood via a two-step sedimentation procedure, and contaminating erythrocytes are selectively lysed. The neutrophils were preincubated in 0.25% Hanks buffer containing bovine serum albumin (BSA) with 5 ug Cytochalasin B/ ml cells for 5 minutes at 37° C. Neutrophils (4×10^6) are added to stimuli (PAF or buffer control) in the presence and absence of antagonist in Krebs-Ringer buffer to a final volume of 1.0 ml, and incubated at 37° C. for appropriate periods of time. At the end of the reaction period the neutrophils are pelleted by centrifugation at 3000 rpm for 5 minutes at 4° C.
Aliquots (0.2 ml) of the supernatants are added to polysyrene tubes to which are added the following: 0.6 ml)>25% Hanks BSA, 0.5 ml MPO buffer (0.2 M NaPO4, pH 6.2) and to start the color reaction 0.2 ml of a 1:1 v/v 0.05% H2 O2 :1.25 mg/ml dimethoxybenzidine (DMB). The reaction is allowed to run at room temperature for 15 minutes and is stopped by the addition of 0.05 ml 2% sodium azide. The developed color is quantitated in a spectrophotometer at 460 nm. The amount of myeloperoxidase (MPO) released by PAF stimulation can thus be determined. In order to determine the total amount of MPO in the cells an unstimulated control tube of neutrophils is lysed using 0.01 ml 10% Triton TX and the total MPO is determined via the color reaction and spectrophotometer reading. The activity of a given concentration of PAF is expressed as the percentage of the total MPO released. The activity of antagonists at a given concentration is expressed as a percentage of inhibition of PAF-induced MPO released at a single concentration of PAF.

For data set [2], the system named is human neutrophils (PAF-induced bead adhesion). Nature of the data set: PAF-induced adhesion of human neutrophils to latex beads. Format: cell-based. The note with it: Neutrophil, albumin-coated latex beads. As for the experimental part: as §1
Latex bead suspension (0.6 ml; 10% aqueous suspension; particle diameter=1u) is pipeted into a 1.5 ml eppendorf centrifuge tube. The beads are pelleted by centrifugation, the supernatant is discarded and the beads are washed 2 times with 1 ml 0.9% saline. To the pelleted beads is added 0.5 ml 20 mg/ml human serum albunim (HSA) in Krebs-Ringer buffer.
Allow bed-albumin mixture to sit at room temperature for 10 minutes, centrifuge for 1 minute and remove the supernatant, and wash albumin-coated beads 3 times with saline. Resuspend the beads in 1 ml of Krebs-Ringer.
Human neutrophils are prepared as described for the neutrophil degranulation assay and 10^7 cells are added to 0.3 ml of Krebs-Ringerin the presence and absence of PAF and putative antagonist and are incubated at 37° for an appropriate period of time.
The albumin-coated beads are then added in 0.05 ml to give a final bead concentration of 1% v/v, resulting in a bead to neutrophil ratio of 100:1. The tubes containing cells and beads are then placed in an agitating water bath at 37° C. and 120 oscillation per minute for 10 minutes. The reaction is stopped by adding an equal volume of 2.5% glutaraldehyde in saline. The reaction tubes are allowed to stand at room temperature for 30 minutes. The cells are then washed 3 times (with centrifugation at 1000 rpm for 5 minutes) with saline to remove the unadhered latex beads and resuspended in 0.3 ml saline.
Wet mounts are prepared and adherence is examined by light microscopy at 400x. […] Activity of the antagonists is expressed as the percent inhibition of PAF-induced adherence.

In data set [3] the test system is rabbit platelets (PAF-induced serotonin release). The data set can be described thus: PAF-induced release of tritiated serotonin from rabbit platelets. In kind it is cell-based, rabbit (New Zealand White). As to conditions: Oryctolagus cuniculus, Platelet, PAF-induced, rabbit platelets. How it is done:
as §1
Blood is collected from the central ear artery of New Zealand White rabbits into a 1:7 volume of acid citrate dextrose. The blood is centrifuged at 1100 rpm for 20 minutes. The isolated platelet rich plasma (PRP) is then incubated at 37° C. for 30 minutes with 1 μCi^3 H-serotonin binoxalate per ml PRP. Labeled platelets are pelleted by centrifugation at 2800 rpm for 20 minutes. The platelets are then washed in Tyrodes gel buffer without calcium in the presence of 0.1 mM EGTA and again pelleted at 2800 rpm for 20 minutes. This wash process is repeated. The washed platelet pellet is resuspended in Tyrodes gel buffer without calcium and adjusted to a concentration of 1.25×10^9 platelets/ml, as determined from a standard curve of absorbance at 530 num vs platelet concentration.
Polystyrene reaction tubes containing various dilutions of PAF (for standard curve determination) or a single concentration of PAF with and without the subject antagonist in a 0.45 ml volume of Tyrodes gel buffer with calcium each receive a 0.05 ml aliquot of the paltelet preparation. After a 90 second incubation period at room temperature, the reaction is stopped by the addition of 0.02 ml of 9.25 % formaldehyde. The platelets are then pelleted by centrifugation at 2800 rpm for 15 minutes at 4° C.
Aliquots (0.1 ml) of the supernatants are added to 3 ml liquid scintillation fluid in polypropylene vials. The samples are then counted for radioactivity in a liquid scintillation counter. The platelets in one set of reaction tubes containing only buffer and labeled platelets are lysed using 0.01 ml 10% Triton TX, and the total reactivity is determined by liquid scintillation counting. The determined dpm represent the total radioactivity in the labelled platelets. The results for each determination are reported as the percentage release of the total radioactivity in the sample. The extent of PAF antagonist activity is expressed as the percent inhibition of ^3 H-serotonin release compared to that amount released by PAF alone.

Data set [4] can be described thus: Stability of free base solution on exposure to air (tlc). Format: physicochemical. As to conditions: 1 h exposure to air. As for the experimental part:
1-(3,4-Dimethoxybenzyl)-6-methyl-3,4-dihydroisoquinoline (D2). Amide D1 (24.7 g, 0.079 mol) and 850 ml of tetrachloroethane was distilled to remove 50 ml of solvent. This solution was added to a solution of 90 g (0.63 mol) of P2 O5 in HMDSO which was heated at 115°. The reaction mixture was heated at 155°-170° for 5 h at which time the reaction appeared complete by tlc. To the cooled reaction mixture was added over 1 h a solution of 100 g of NaOH in 1 l of water under nitrogen with stirring. The organic layer was separated and filtered through a pad of MgSO4. One-half of the tetrachloroethane solution was partially evaporated and […] hydrochloric acid (25 ml) wa added. The resulting mixture was evaporated to dryness. The residue was twice treated with EtOH (100 ml) and evaporated to dryness. The residue was washed with two 100 ml portions of ether and taken up to 100 ml of acetone and evaporated to give a foam. The foam was washed with ethyl acetate (60 ml) and dissolved in 75 ml of i-PrOH, treated with charcoal, filtered and boiled down to 50 ml. The solution deposited 3.4 g of 1-(3,4-dimethoxybenzyl)-6-methyl-3, 4-dihydroisoquinoline hydrochloride after storing overnight at 4°. Dilution of the mother liquor with ethyl acetate and ether gave another 2.9 g to raise the yield to 6.3 g (48% based on one-half of crude product purified).

The term inhibition denotes the share of the control response that was lost under treatment. Turning to `COc1ccc(CC2=NCCc3cc(C)ccc32)cc1OC` [Compound D2, 1-(3,4-Dimethoxybenzyl)-6-methyl-3,4-dihydroisoquinoline], the inhibition at 30 µM in data set [1] amounted to 17%; in data set [2], 23%; in data set [3] (read-out: Platelet Serotonin Release % Inhibition at 30 uM, 30 uM), 70%. Moreover, the IC50 in data set [3] (read-out: Platelet Serotonin Release I50) was 5.6 µM. Besides, the “Decomposition of free base in solution by tlc” value in data set [4] is “extensive decomposition”.
